≈ marks a conversion by molar mass, not a printed value. Read-outs that look alike come from different tables or passages of the source.

Series [1] can be described thus: Log of ratio of octanol to water solubility (individually determined). The format is physicochemical. The note with it: solubilities individually determined. From the text:
(§1) The indolinone-based compound is a planar aromatic compound and is non-ionizable in the pharmaceutically acceptable range.

The nature of series [2]: Solubility of the indolinone-based compound in water and excipients. The format is physicochemical. The method, then:
An increase in the indolinone-based compound's aqueous solubility in hydrotropic solute solutions like nicotinamide and pyridoxine hydrochloride was observed. It is soluble (15-20 mg/mL) in polar excipients like polyethylene glycols of 300 and 400 MW.
as §1

Series [3] concerns VEGF-induced endothelial cell growth. Put plainly: Inhibition of VEGF-induced endothelial cell growth. The format is cell-based. The note with it: in words. The method, then: Indolinone-based compounds of the invention have been tested for their ability to activate or inhibit protein kinases in biological assays. The methods used to measure indolinone-based compound modulation of protein kinase function are described in U.S. application Ser. No. 08/702,282, filed Aug. 23, 1996, incorporated herein by reference in its entirety, a including any drawings. In particular, indolinone-based compounds of the invention were tested for their ability to inhibit the FLK protein kinase.

For `Nc1ncnc2cccc(Oc3ccc4c(c3)OCO4)c12` [Procedure C 5, 4-Amino-5-(3,4-methylenedioxyphenoxy) quinazoline], the melting point (commonly the temperature, or range, at which the solid turns liquid) was 201 to 203 °C.
As to `COc1ccc(Oc2cccc3nc(N)nc(N)c23)cc1OC` [Procedure B 2, 2,4-Diamino-5-(3,4-dimethoxyphenoxy)quinazoline], the melting point was 301 to 302 °C.
As to `Nc1nc(N)c2c(Oc3ccccc3F)cccc2n1` [Procedure B 4, 2,4-Diamino-5-(2-fluorophenoxy)quinazoline], the melting point lay in the range of 301 to 303 °C.
For the molecule `Cc1cc(C)c(C=C2C(=O)Nc3ccccc32)[nH]1` [3-[(2,4-dimethylpyrrol-5-yl)methylene]-2-indolinone], the “log of ratio of octanol to water solubility” value in series [1] stood at 5.6. In addition, the “influence of pH of the aqueous media on aqueous solubility” value in series [2] is reported as “did not influence”. The solubility (as a rule, how much of the substance goes into solution per volume) in series [2] (aromatic solvents like benzyl alcohol, organic solvent or mixture, read-out: solubility in aromatic solvents) is 10 to 15 mg/mL (≈ 42 to 62.9 mM); in series [2] (polyethylene glycols of 300 and 400 MW, organic solvent or mixture, read-out: solubility in polar excipients), 15 to 20 mg/mL (≈ 62.9 to 83.9 mM); in series [2] (polyglycolized lipids like LABPASOL and GELUCIRE, oil or lipid, read-out: solubility in polyglycolized lipids), 25 to 30 mg/mL (≈ 105 to 126 mM); in series [2] (water, read-out: solubility in water) it was 1e-05 mg/mL (≈ 4.2e-05 mM). Moreover, the “aqueous solubility in hydrotropic solute solutions” value in series [2] (hydrotropic solute solutions like nicotinamide and pyridoxine hydrochloride) is given as “increase”. In series [2] (in words), the “solubility in water, water miscible non-aqueous solvents, and oils” value is on record as “low solubility”. The “inhibition of VEGF-induced endothelial cell growth” value in series [3] was “specific and potent inhibitor”.
Consider `Nc1nc(N)c2c(-n3cccc3)cccc2n1` [Procedure D 4, 2,4-Diamino-5-(pyrrol-1-yl)quinazoline], for which the melting point was in the range of 248 to 250 °C.
In the case of `CN(C)CCCOc1cccc2nc(N)nc(N)c12` [Procedure B 9, 2,4-Diamino-5-(3-dimethylaminopropoxy)quinazoline], the melting point is 193 to 195 °C.
On to `Nc1nc(N)c2c(Oc3ccc(OCc4ccccc4)cc3)cccc2n1` [Procedure B 8, 2,4-Diamino-5-(4-benzyloxyphenoxy)quinazoline], for which the melting point fell in the range of 175 to 177 °C.
In the case of `Nc1ncnc2cccc(Oc3ccc(OCc4ccccc4)cc3)c12` [Procedure C 4, 4-Amino-5-(4-benzyloxyphenoxy)quinazoline], the melting point fell in the range of 170 to 171 °C.
In turn, `CN(C)c1cccc(Oc2cccc3ncnc(N)c23)c1` [Procedure C 2, 4-Amino-5-(3-dimethylaminophenoxy)quinazoline] registered a melting point of 179 to 181 °C.
Still for that read-out and setting: with `CC(C)(C)c1ccc(Oc2cccc3nc(N)nc(N)c23)cc1` [Procedure B 1, 2,4-Diamino-5-(4-tert-butylphenoxy)quinazoline] the figure was 226 to 228 °C; with `CN(C)c1cccc(Oc2cccc3nc(N)nc(N)c23)c1` [Procedure B 3, 2,4-Diamino-5-(3-dimethylaminophenoxy)quinazoline], 224 to 225 °C (dec.).
The same measure, in the same setting: the value for `COc1ccccc1Oc1cccc2nc(N)nc(N)c12` [Procedure B 6, 2,4-Diamino-5-(2-methoxyphenoxy)quinazoline] was 208 to 209 °C (dec.); that for `Nc1nc(N)c2c(Oc3cccc(Br)c3)cccc2n1` [Procedure B 5, 2,4-Diamino-5-(3-bromophenoxy)quinazoline] was 292 to 295 °C.
Take `Nc1ncnc2cccc(Oc3cccnc3)c12` [Procedure C 3, 4-Amino-5-(3-pyridinoxy)quinazoline]: the melting point was 245 to 247 °C.
`Nc1ncnc2cccc(Oc3ccc(F)cc3)c12` [Similar synthetic processes 1, 4-Amino-5-(4-fluorophenoxy)quinazoline] showed a melting point of 188 to 190 °C.
As for `COc1ccc(Oc2cccc3ncnc(N)c23)cc1` [Procedure C 1, 4-Amino-5-(4-methoxyphenoxy)quinazoline], the melting point lay in the range of 192 to 195 °C.
